# Tests used:
# CDAD or PMC = conditions: cited from earlier work; for patients in whom diarrhea returns after discontinuing antibiotic treatment: after oral Metronidazole or Vancomycin therapy, ref. [15]; for therapy effective, share of patients who suffer from CDAD or PMC: oral Metronidazole or Vancomycin with removal of offending drug and fluid replacement
# C. difficile toxin A [1] = target: T1, C. difficile toxin A (Clostridioides difficile, UniProt P16154); experiment: Screening: neutralization of purified toxin A hemagglutination activity by SYNSORBs (Example 1, FIG. 1); assay type: biochemical, Clostridium difficile
# T1 construct: Toxin A was isolated from a toxin producing strain of C. difficile; made in house; host or cells: Clostridium difficile ATCC 43255 (VPI strain 10463), native toxin from culture supernatant, not recombinant
# T1 sequence (P16154 whole entry, looked up): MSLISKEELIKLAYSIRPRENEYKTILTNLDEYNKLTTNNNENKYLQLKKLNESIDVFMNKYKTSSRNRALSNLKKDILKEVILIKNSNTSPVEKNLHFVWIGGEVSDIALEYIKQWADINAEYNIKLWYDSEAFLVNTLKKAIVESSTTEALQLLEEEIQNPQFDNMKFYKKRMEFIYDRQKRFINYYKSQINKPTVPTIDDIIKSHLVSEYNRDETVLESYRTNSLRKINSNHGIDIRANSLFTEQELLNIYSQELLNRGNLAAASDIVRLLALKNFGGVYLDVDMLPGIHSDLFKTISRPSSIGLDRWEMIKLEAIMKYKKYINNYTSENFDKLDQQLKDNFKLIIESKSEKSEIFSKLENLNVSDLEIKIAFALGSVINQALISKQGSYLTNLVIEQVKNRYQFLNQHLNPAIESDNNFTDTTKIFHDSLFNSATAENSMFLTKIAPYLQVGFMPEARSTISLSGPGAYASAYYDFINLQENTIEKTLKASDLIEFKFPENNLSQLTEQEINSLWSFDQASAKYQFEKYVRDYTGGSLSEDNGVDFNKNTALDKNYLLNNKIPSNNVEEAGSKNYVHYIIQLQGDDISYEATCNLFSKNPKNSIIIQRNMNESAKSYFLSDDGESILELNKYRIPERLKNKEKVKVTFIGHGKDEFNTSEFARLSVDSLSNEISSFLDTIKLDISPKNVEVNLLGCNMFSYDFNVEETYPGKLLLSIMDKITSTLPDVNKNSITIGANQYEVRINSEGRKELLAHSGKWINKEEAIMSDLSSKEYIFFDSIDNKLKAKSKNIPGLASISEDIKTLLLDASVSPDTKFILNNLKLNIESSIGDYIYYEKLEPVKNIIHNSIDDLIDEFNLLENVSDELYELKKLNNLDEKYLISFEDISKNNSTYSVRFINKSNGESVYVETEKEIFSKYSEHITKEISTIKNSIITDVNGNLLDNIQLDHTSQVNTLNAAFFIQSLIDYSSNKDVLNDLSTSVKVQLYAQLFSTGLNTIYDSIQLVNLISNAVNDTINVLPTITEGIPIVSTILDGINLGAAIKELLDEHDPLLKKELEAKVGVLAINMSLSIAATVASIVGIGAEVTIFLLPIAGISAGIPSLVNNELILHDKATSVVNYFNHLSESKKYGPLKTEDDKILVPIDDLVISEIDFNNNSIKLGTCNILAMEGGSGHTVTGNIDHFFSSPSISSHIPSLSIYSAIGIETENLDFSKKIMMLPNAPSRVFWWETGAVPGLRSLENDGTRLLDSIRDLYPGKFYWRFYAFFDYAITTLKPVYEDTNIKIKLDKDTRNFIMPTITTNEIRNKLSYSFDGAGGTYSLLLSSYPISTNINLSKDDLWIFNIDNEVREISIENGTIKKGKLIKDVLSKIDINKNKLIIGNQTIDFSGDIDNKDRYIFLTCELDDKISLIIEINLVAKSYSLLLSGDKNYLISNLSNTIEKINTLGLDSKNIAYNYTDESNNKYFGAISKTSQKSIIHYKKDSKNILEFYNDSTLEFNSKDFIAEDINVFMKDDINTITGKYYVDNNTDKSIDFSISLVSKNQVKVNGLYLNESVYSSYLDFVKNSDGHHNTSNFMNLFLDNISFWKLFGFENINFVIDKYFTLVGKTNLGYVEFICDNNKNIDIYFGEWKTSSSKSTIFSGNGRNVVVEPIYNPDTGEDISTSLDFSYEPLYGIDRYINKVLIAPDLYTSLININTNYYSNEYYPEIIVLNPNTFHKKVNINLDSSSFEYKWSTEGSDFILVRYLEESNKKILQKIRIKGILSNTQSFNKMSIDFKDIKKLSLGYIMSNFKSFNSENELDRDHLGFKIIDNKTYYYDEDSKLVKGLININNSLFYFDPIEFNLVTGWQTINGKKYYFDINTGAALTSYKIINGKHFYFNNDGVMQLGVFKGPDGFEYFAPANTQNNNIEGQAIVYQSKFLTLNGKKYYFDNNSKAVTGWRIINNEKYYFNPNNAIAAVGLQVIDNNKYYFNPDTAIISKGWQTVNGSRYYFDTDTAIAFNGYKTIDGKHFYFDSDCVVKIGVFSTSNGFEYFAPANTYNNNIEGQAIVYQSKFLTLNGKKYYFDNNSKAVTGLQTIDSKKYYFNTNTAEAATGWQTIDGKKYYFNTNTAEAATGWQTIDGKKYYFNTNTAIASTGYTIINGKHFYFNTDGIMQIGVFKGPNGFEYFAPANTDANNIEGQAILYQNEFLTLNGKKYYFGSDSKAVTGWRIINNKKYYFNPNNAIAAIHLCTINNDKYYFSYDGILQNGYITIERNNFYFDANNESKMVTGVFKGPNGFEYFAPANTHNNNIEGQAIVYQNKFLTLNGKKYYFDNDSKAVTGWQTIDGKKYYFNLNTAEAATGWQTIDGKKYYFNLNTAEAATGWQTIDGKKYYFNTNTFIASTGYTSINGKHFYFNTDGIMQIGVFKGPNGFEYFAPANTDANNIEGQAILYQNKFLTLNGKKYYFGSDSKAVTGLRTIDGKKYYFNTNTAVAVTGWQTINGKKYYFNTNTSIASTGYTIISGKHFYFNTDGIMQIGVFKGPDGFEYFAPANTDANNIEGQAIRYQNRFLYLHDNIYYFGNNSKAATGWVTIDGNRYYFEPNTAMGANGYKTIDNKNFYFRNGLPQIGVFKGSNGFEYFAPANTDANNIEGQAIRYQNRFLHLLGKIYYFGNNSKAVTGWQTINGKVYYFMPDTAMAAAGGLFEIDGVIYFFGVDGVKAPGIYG
# Protocol: The amount of toxin A adsorption to SYNSORB was determined by assaying supernatants for reduction of endpoint titers in hemagglutination assays relative to controls without any added SYNSORB. […] SYNSORBs 2, 5, 104, 105, and 134 neutralized about 50% of toxin A activity.
# Toxin A was isolated from a toxin producing strain of C. difficile (ATCC 43255, VPI strain 10463) using slight modifications of the method of Sullivan et al..
# C. difficile was grown in 2.3 liter of brain heart infusion broth (BHIB) in anaerobic jars for 72 hours at 37° C. The crude culture was centrifuged at 5,000× g for 20 minutes to sediment the bacteria. The resulting culture supernatant was carefully removed and solid ammonium sulfate (897 g) was added to make 60% saturation. […]
# Fresh rabbit erythrocytes were washed once in phosphate buffered saline (PBS) and resuspended at a concentration of 4% (v/v) in cold PBS. […] After incubating the plate for 4 hours at 4° C., the hemagglutination titer was visually assessed. […]
# After incubation, the SYNSORB was allowed to settle to the bottom of the tubes and the supernatants were carefully removed. Serial 2-fold dilutions of the supernatants were prepared and the hemagglutination endpoint determined as described above.
# The extent of reduction in the endpoint in the presence of SYNSORB was determined by comparing the endpoint with that of controls in which SYNSORB was not added. […]
# C. difficile toxin A [2] = target: T1, C. difficile toxin A; experiment: Determination of binding affinity of SYNSORBs to toxin A, hemagglutination titer reduction (Example 4, FIG. 4); parameters: species or system Clostridium difficile; conditions: rabbit erythrocytes
# Protocol: For the purposes of this invention, oligosaccharide sequences attached to solid supports which bind toxin A means those compositions which reduce endpoint titers from hemagglutination assays by at least 50%.
# (§1) Fresh rabbit erythrocytes were washed once in phosphate buffered saline (PBS) and resuspended at a concentration of 4% (v/v) in cold PBS. Serial 2-fold dilutions (50 μl) of toxin A-containing solutions were made in cold PBS in U-shaped microtiter wells. An equal volume (50 μl) of rabbit erythrocytes was then added to each well and the microtiter plate was mixed gently. After incubating the plate for 4 hours at 4° C., the hemagglutination titer was visually assessed.
# To assess the binding affinity of various SYNSORBs to toxin A, each SYNSORB was combined with toxin A as described in Example 1. Endpoint titers from hemagglutination assays using rabbit erythocytes were determined as described previously. […] Those SYNSORBs which reduced titers by greater than 50% were deemed to bind toxin A.
# C. difficile toxin A [3] = target: T1, C. difficile toxin A; experiment: Determination of optimal binding conditions (amount and incubation time) for toxin A neutralization, hemagglutination (Example 2, FIGS. 2 and 3); assay type: biochemical, Clostridium difficile; conditions: about 20 mg SYNSORB per 1 ml toxin A solution (20 mg/ml); 2 hours, 37° C.; FIG. 2
# Protocol: as §1
# The amount of SYNSORBS 52 and 90 required for maximal toxin A neutralization was determined by adding 1 ml of a purified toxin A solution to pre-weighed amounts of each SYNSORB in 1.5 ml microcentrifuge tubes. SYNSORB 52 samples were tested using 12.8, 21.6 and 43.3 mg amounts of SYNSORB 52; SYNSORB 90 samples were tested using 12.9, 19.2 and 42.3 mg amounts of SYNSORB 90. Samples were incubated for 2 hours at 37° C. on an end-over-end rotator. […]
# The amount of neutralization in each sample was determined by comparing the endpoint titers of hemagglutination assays from samples with and without SYNSORB.
# The length of incubation time required for optimal neutralization was determined by incubating microcentrifuge tubes containing 1 ml of purified toxin A solution and 20 mg of either SYNSORB 52 or SYNSORB 90. […]
# The degree of neutralization at each incubation period was determined as described above.
compound,measurement,setting,value
CN[C@H](CC(C)C)C(=O)N[C@H]1C(=O)N[C@@H](CC(N)=O)C(=O)N[C@H]2C(=O)N[C@H]3C(=O)N[C@H](C(=O)N[C@H](C(=O)O)c4cc(O)cc(O)c4-c4cc3ccc4O)[C@H](O)c3ccc(c(Cl)c3)Oc3cc2cc(c3O[C@@H]2O[C@H](CO)[C@@H](O)[C@H](O)[C@H]2O[C@H]2C[C@](C)(N)[C@H](O)[C@H](C)O2)Oc2ccc(cc2Cl)[C@H]1O [Vancomycin],patients in whom diarrhea returns after discontinuing antibiotic treatment,CDAD or PMC,about 20%
same,"therapy effective, share of patients who suffer from CDAD or PMC",CDAD or PMC,about 80%
αGal(1-3)βGal(1-3)βGlcNAc [SYNSORB 134],removal/neutralization of toxin A activity (reduction of endpoint titers in hemagglutination assays),"C. difficile toxin A [1]; purified toxin A 0.5 ml, 10.1 to 17.5 mg SYNSORB, room temperature, 2 hours, rabbit erythrocytes",about 50%
βGal(1-4)βGlcNAc [SYNSORB 34],binding to toxin A (criterion: titer reduced by greater than 50%),C. difficile toxin A [2],appear not to bind toxin A
αGal(1-3)βGal(1-4)βGlc [SYNSORB 90],neutralization of toxin A activity (in words),"C. difficile toxin A [1]; purified toxin A, hemagglutination vs controls without SYNSORB",as effective at neutralizing toxin A activity
same,neutralization of toxin A activity,C. difficile toxin A [3],more than 75%
αNeuAc(2-6)βGal(1-4)βGlc [SYNSORB 89],binding to toxin A (criterion: titer reduced by greater than 50%),C. difficile toxin A [2],appear not to bind toxin A
Cc1ncc([N+](=O)[O-])n1CCO [Metronidazole],patients in whom diarrhea returns after discontinuing antibiotic treatment,CDAD or PMC,about 20%
same,"therapy effective, share of patients who suffer from CDAD or PMC",CDAD or PMC,about 80%
αGal(1-4)βGal(1-4)βGlc [SYNSORB 68],binding to toxin A (criterion: titer reduced by greater than 50%),C. difficile toxin A [2],bind toxin A

# Reference: patent US5484773A, “Treatment of antibiotic associated diarrhea” (priority 1994, dated 1996)
